Data published in article PMC11240139, “Exploring the antitumor potential of novel quinoline derivatives via tubulin polymerization inhibition in breast cancer; design, synthesis and molecular docking” (RSC Advances, 2024).

Tests used:
Assay type in all cases: cell-based
HT29 (colon cancer) = assay: NCI-60 SRB cytotoxicity screen; settings: Homo sapiens, HT-29; HT29, single dose 10 μM; read-out: growth inhibition (GI%)
OVCAR-3 (ovarian cancer) = assay: NCI-60 SRB cytotoxicity screen; settings: Homo sapiens; OVCAR-3, single dose 10 μM; read-out: growth inhibition (GI%)
[1] = test system: MDA-MB-468 (breast cancer); assay: NCI-60 SRB cytotoxicity screen; settings: Homo sapiens; MDA-MB-468, single dose 10 μM; read-out: growth inhibition (GI%)
How it was run: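 NCI-60 single-dose (10^−5 M) screen in MDA-MB-468 with SRB protein-stain read-out after 48 h exposure; cells TCA-fixed and absorbance read at 540 nm. Reported as GI%, with compounds meeting NCI activity criteria then run at five doses (0.01–100 μM).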

OVCAR-5 (ovarian cancer) = assay: NCI-60 SRB cytotoxicity screen; settings: Homo sapiens; OVCAR-5, single dose 10 μM; read-out: growth inhibition (GI%)
SR (leukemia) = assay: NCI-60 SRB cytotoxicity screen; settings: single dose 10 μM, read-out: growth inhibition (GI%)
SW-620 (colon cancer) = assay: NCI-60 SRB cytotoxicity screen; settings: Homo sapiens; SW-620, single dose 10 μM; read-out: growth inhibition (GI%)
T-47D (breast cancer) = assay: NCI-60 SRB cytotoxicity screen; settings: Homo sapiens, T47D, single dose 10 μM, read-out: growth inhibition (GI%)
OVCAR-4 (ovarian cancer) = assay: NCI-60 SRB cytotoxicity screen; settings: Homo sapiens; OVCAR-4, single dose 10 μM; read-out: growth inhibition (GI%)
CCRF-CEM (leukemia) = assay: NCI-60 SRB cytotoxicity screen; settings: Homo sapiens, single dose 10 μM, read-out: growth inhibition (GI%)
MALME-3M (melanoma) = assay: NCI-60 SRB cytotoxicity screen; settings: Homo sapiens, single dose 10 μM, read-out: growth inhibition (GI%)
SF-295 (CNS cancer) = assay: NCI-60 SRB cytotoxicity screen; settings: Homo sapiens; SF-295, single dose 10 μM; read-out: growth inhibition (GI%)
MCF7 (breast cancer) = assay: NCI-60 SRB cytotoxicity screen; settings: Homo sapiens; MCF7, single dose 10 μM; read-out: growth inhibition (GI%)
SF-539 (CNS cancer) = assay: NCI-60 SRB cytotoxicity screen; settings: Homo sapiens; SF-539, single dose 10 μM; read-out: growth inhibition (GI%)
SK-OV-3 (ovarian cancer) = assay: NCI-60 SRB cytotoxicity screen; settings: Homo sapiens; SK-OV-3, single dose 10 μM; read-out: growth inhibition (GI%)
SF-268 (CNS cancer) = assay: NCI-60 SRB cytotoxicity screen; settings: Homo sapiens; SF-268, single dose 10 μM; read-out: growth inhibition (GI%)
[2] = test system: EKVX (non-small cell lung cancer); assay: NCI-60 SRB cytotoxicity screen; settings: Homo sapiens, single dose 10 μM, read-out: growth inhibition (GI%)
HCT-15 (colon cancer) = assay: NCI-60 SRB cytotoxicity screen; settings: Homo sapiens; HCT-15, single dose 10 μM; read-out: growth inhibition (GI%)
BT-549 (breast cancer) = assay: NCI-60 SRB cytotoxicity screen; settings: Homo sapiens; BT-549, single dose 10 μM; read-out: growth inhibition (GI%)
IGROV1 (ovarian cancer) = assay: NCI-60 SRB cytotoxicity screen; settings: Homo sapiens, IGROV-1; IGROV1, single dose 10 μM; read-out: growth inhibition (GI%)
RXF 393 (renal cancer) = assay: NCI-60 SRB cytotoxicity screen; settings: Homo sapiens; RXF 393, single dose 10 μM; read-out: growth inhibition (GI%)
[3] = test system: MDA-MB-231/ATCC (breast cancer); assay: NCI-60 SRB cytotoxicity screen; settings: Homo sapiens, MDA-MB-231, read-out: growth inhibition (GI%);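 also: growth inhibition in percent at a single 10 µM dose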
[4] = test system: NCI/ADR-RES (ovarian cancer); assay: NCI-60 SRB cytotoxicity screen; settings: Homo sapiens, single dose 10 μM, read-out: growth inhibition (GI%)
UACC-257 (melanoma) = assay: NCI-60 SRB cytotoxicity screen; settings: Homo sapiens; UACC-257, single dose 10 μM; read-out: growth inhibition (GI%)
MOLT-4 (leukemia) = assay: NCI-60 SRB cytotoxicity screen; settings: Homo sapiens; MOLT-4, single dose 10 μM; read-out: growth inhibition (GI%)
[5] = test system: 60 cancer cell lines (NCI); assay: NCI-60 single-dose screen, overall verdict over the panel; settings: single dose 10 μM, whole panel
Description: The cytotoxic activity of the synthesized quinoline derivatives was determined by the national cancer institute (NCI, Bethesda, Maryland, USA) against 60 different cancer cell lines at a single high dose (10^−5 M) in the full NCI 60 cell panel using the sulforhodamine B assay for cell viability evaluation. In summary, 5 × 10^3 cells were in 96-well plate and incubated in complete media for 24 h. Cells were treated with 100 μL of media containing each newly synthesized compound. After drug exposure, cells were fixed by replacing media with 150 μL of 10% TCA and incubated at 4 °C for 1 h. The TCA solution was removed, and the cells were washed 5 times with distilled water. Aliquots of 70 μL SRB solution (0.4% w/v) were added and incubated in a dark place at room temperature for 10 min. The plates were washed 3 times with 1% acetic acid and allowed to air-dry overnight. Then, 150 μL of TRIS (10 mM) was added to dissolve protein-bound SRB stain. The absorbance was measured at 540 nm.% Cytotoxicity = [1 − (AVx/AVNC)] × 100where AVx denotes the average absorbance of the sample well and AVNC denotes the average absorbance of the negative control.

SNB-19 (CNS cancer) = assay: NCI-60 SRB cytotoxicity screen; settings: Homo sapiens; SNB-19, single dose 10 μM; read-out: growth inhibition (GI%)

Row | Structure (SMILES) | inhibition at 10 µM (OVCAR-3 (ovarian cancer)) [%] | inhibition at 10 µM [1] [%] | inhibition at 10 µM (OVCAR-5 (ovarian cancer)) [%] | inhibition at 10 µM (SR (leukemia)) [%] | inhibition at 10 µM (SW-620 (colon cancer)) [%] | inhibition at 10 µM (T-47D (breast cancer)) [%] | inhibition at 10 µM (OVCAR-4 (ovarian cancer)) [%] | inhibition at 10 µM (CCRF-CEM (leukemia)) [%] | inhibition at 10 µM (MALME-3M (melanoma)) [%] | inhibition at 10 µM (SF-295 (CNS cancer)) [%] | inhibition at 10 µM (MCF7 (breast cancer)) [%] | inhibition at 10 µM (SF-539 (CNS cancer)) [%] | inhibition at 10 µM (SK-OV-3 (ovarian cancer)) [%] | inhibition at 10 µM (SF-268 (CNS cancer)) [%] | inhibition at 10 µM [2] [%] | inhibition at 10 µM (HCT-15 (colon cancer)) [%] | inhibition at 10 µM (BT-549 (breast cancer)) [%] | inhibition at 10 µM (IGROV1 (ovarian cancer)) [%] | inhibition at 10 µM (RXF 393 (renal cancer)) [%] | inhibition at 10 µM [3] [%] | further results
1 | CCc1cccc2cc(C=CC(=O)c3ccc(F)cc3)c(Cl)nc12 [Compound 3d, 3-(2-Chloro-8-ethylquinolin-3-yl)-1-(4-fluorophenyl)prop-2-en-1-one] | < 10 | < 10 | < 10 | < 10 | < 10 | < 10 | < 10 | < 10 | < 10 | < 10 | < 10 | 11 | < 10 | < 10 | < 10 | < 10 | < 10 | < 10 | < 10 | < 10 | inhibition at 10 µM (HT29 (colon cancer)): < 10%; inhibition at 10 µM [4]: < 10%; inhibition at 10 µM (UACC-257 (melanoma)): < 10%; inhibition at 10 µM (MOLT-4 (leukemia)): < 10%; cytotoxic activity over the cell lines (in words) [5]: low cytotoxic activity; inhibition at 10 µM (SNB-19 (CNS cancer)): < 10%
2 | CCc1cccc2cc(-c3cc(-c4ccc(OC)c(OC)c4)[nH]c(=O)c3C#N)c(Cl)nc12 [Compound 4b, 4-(2-Chloro-8-ethylquinolin-3-yl)-6-(3,4-dimethoxyphenyl)-2-oxo-1,2-dihydropyridine-3-carbonitrile] | < 10 | < 10 | < 10 | < 10 | < 10 | 16.6 | 14 | < 10 | < 10 | < 10 | 11.3 | < 10 | < 10 | 16.1 | 14.2 | < 10 | < 10 | < 10 | 33.8 | < 10 | inhibition at 10 µM (HT29 (colon cancer)): < 10%; inhibition at 10 µM [4]: < 10%; inhibition at 10 µM (UACC-257 (melanoma)): < 10%; inhibition at 10 µM (MOLT-4 (leukemia)): < 10%; cytotoxic activity over the cell lines (in words) [5]: mild cytotoxic activity; inhibition at 10 µM (SNB-19 (CNS cancer)): < 10%
3 | CCc1cccc2cc(-c3cc(-c4ccc(OC)cc4)[nH]c(=S)c3C#N)c(Cl)nc12 [Compound 5a, 4-(2-Chloro-8-ethylquinolin-3-yl)-6-(4-methoxyphenyl)-2-thioxo-1,2-dihydropyridine-3-carbonitrile] | < 10 | 18.7 | < 10 | 11.6 | < 10 | 12.7 | 24.5 | < 10 | < 10 | 13.8 | 20.8 | < 10 | < 10 | 23.1 | 10.3 | < 10 | 20.4 | 12.9 | 20.6 | 18.1 | inhibition at 10 µM (HT29 (colon cancer)): < 10%; inhibition at 10 µM [4]: < 10%; inhibition at 10 µM (UACC-257 (melanoma)): < 10%; inhibition at 10 µM (MOLT-4 (leukemia)): 12.7%; cytotoxic activity over the cell lines (in words) [5]: slight cytotoxic activity; inhibition at 10 µM (SNB-19 (CNS cancer)): 13.2%
4 | CCc1cccc2cc(-c3cc(-c4ccc(OC)c(OC)c4)[nH]c(=S)c3C#N)c(Cl)nc12 [Compound 5b, 4-(2-Chloro-8-ethylquinolin-3-yl)-6-(3,4-dimethoxyphenyl)-2-thioxo-1,2-dihydropyridine-3-carbonitrile] | < 10 | 22.8 | < 10 | < 10 | < 10 | 41.1 | 22.4 | 28.8 | < 10 | 16.5 | 26.6 | 22 | < 10 | 32.2 | 23.9 | 12.2 | 28.2 | < 10 | 24.6 | 19.1 | inhibition at 10 µM [4]: 24.9%; inhibition at 10 µM (UACC-257 (melanoma)): < 10%; inhibition at 10 µM (MOLT-4 (leukemia)): 44.3%; cytotoxic activity over the cell lines (in words) [5]: slight cytotoxic activity; inhibition at 10 µM (SNB-19 (CNS cancer)): 22.6%
